Experiment [1] addresses T1, recombinant human cGAS (aa147-522) (Homo sapiens, UniProt Q8N884).
T1 construct: recombinant human cGAS (aa147-522); His6-SUMO (N, cleaved yes); made in house; host or cells: E. coli BL21/pLys
As to the kind of experiment: In vitro inhibition assay of cGAS activity (KinaseGlo, ATP consumption). The format is biochemical. Particulars: Herring testis DNA, 6.6 μM ATP, 0.1 mM GTP, 37° C. 20 minutes. As to the method:
Expression and Purification of Recombinant cGAS Protein: cDNA encoding full-length or amino acids 147-520 of human cGAS was inserted into a modified pET28a vector containing an in-frame His6-SUMO tag. The E. coli strain BL21/pLys harboring the plasmid was induced with 0.5 mM IPTG at 18° C. overnight. His6-SUMO tag was removed by a SUMO protease digestion following purification of the His6-SUMO-cGAS as described previously (Sun et al, 2013, Science 339, 786).
In vitro inhibition assay of cGAS activity: A 60 μL mixture containing 20 mM Tris-Cl, pH 7.5, 5 mM MgCl2, 0.2 mg/mL BSA, 0.01 mg/mL Herring testis DNA, 6.6 μM ATP, 0.1 mM GTP, 1.5 μg/mL of recombinant human cGAS (aa147-522) and serial dilutions of a test compound in DMSO is added to a 96-well plate and incubated at 37° C. for 20 minutes. At the end of reaction, 40 μL of KinaseGlo Max (Promega) is added and chemiluminescence was measured with a luminometer. Inhibitory effect of a compound is evaluated by plotting percentage of ATP consumption against logarithm of compound concentrations. IC50 value is calculated using GraphPad Prism 8 (GraphPad Software, Inc.).
The letter codes for cGAS IC50 include: A (<2 μM); B (2-30 μM); C (>30 μM).
On the technique in general: In Kinase-Glo more light means more ATP remaining.

Experiment [2] relates to cGAS activity in reporter THP1 cell line. As to the kind of experiment: Cellular assay to measure cGAS activity (ISRE-Gaussia luciferase reporter THP1 cells, ISD transfection). The format is cell-based. Particulars: Homo sapiens, THP-1, 2 μg/mL ISD transfection, 16 hours, luciferase luminescence. The protocol: Cellular assay to measure cGAS activity: Reporter THP1 cell line harboring a gene encoding Gaussia Luciferase under the control of 5 tandem repeats of interferon-stimulated response elements (ISRE) fused to an ISG54 minimal promoter was used to test inhibition of cGAS activity by synthetic compounds in human cells. These cells were plated on 96-well plates at 0.3×10^6/well and incubated with serial dilutions of compounds or DMSO for 5 min, followed by transfection of 2 μg/mL of ISD (Interferon Stimulatory DNA, a 45 bp DNA oligo) or mock transfected using lipofectamine 2000 (Life Technology) method, according to manufacturer's instructions. 16 hours later, 15 μL of the media from each well was transferred to a new plate, 50 μL of solution containing 50 mM Hepes-NaOH, pH 6.5, 50 mM NaCl, 10 mM EDTA, 1 μM of coeleanterazine is added to each well and luminescence is measured immediately. Fold increase in luminescence compared to mock transfection was plotted against concentrations of each compound, and IC50 is calculated using Graphpad. To evaluate the specificity of a compound, the same procedure is performed except that cells are transfected with 2 μg/mL […] or infected with Sendai Virus (SeV) at 50 Unit/mL, which are known to activate the RIG-I-MAVS pathway. A specific inhibitory compound should inhibit interferon induction by DNA but have minimal effect on poly(I:C) or Sendai virus induced interferon reporter gene expression.
The letter codes for cGAS IC50 include: A (<2 μM); B (2-10 μM); C (>10 μM).
In general terms: A reporter such as luciferase makes a cellular process visible.

Results on five compounds are retold here after patent US12091387B2, “Quinoline cGAS antagonist compounds” (IMMUNESENSOR THERAPEUTICS, INC., priority 2022, dated 2024).

T1 sequence (Q8N884 147-522): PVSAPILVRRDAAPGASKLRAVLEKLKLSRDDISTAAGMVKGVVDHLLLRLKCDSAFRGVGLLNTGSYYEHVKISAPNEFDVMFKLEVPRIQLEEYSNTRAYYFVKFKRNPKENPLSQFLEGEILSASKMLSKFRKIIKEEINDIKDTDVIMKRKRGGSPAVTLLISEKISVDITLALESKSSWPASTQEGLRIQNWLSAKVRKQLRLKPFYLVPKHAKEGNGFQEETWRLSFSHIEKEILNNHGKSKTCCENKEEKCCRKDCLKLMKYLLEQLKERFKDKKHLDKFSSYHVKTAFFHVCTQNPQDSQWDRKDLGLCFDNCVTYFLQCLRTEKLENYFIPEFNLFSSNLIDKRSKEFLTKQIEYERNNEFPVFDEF

On to `O=C(O)[C@@H]1[C@@H](O)CCN1c1cc(-n2cncn2)c2cc(Cl)c(Br)cc2n1` [I-934], for which the IC50 (commonly the concentration that gives 50% inhibition) in experiment [1] was under 2000 nM; in experiment [2] it was over 10000 nM.

For the compound `O=C(O)CCOC[C@@H]1CCN(c2cc(-n3cncn3)c3cc(Cl)c(Br)cc3n2)C1` [I-935], the IC50 in experiment [1] and in experiment [2] was under 2000 nM throughout.

For `COC(=O)[C@@H]1[C@@H](O)CCN1c1cc(-n2cncn2)c2cc(Cl)c(Br)cc2n1` [I-936], the IC50 in experiment [1] and in experiment [2] was under 2000 nM throughout.

In the case of `O=C(O)CCOC[C@@H]1CCN(c2cc(-n3cncn3)c3cc(Br)c(Cl)c(Cl)c3n2)C1` [I-937], the IC50 in experiment [1] and in experiment [2] was under 2000 nM in each case.

For the compound `CCN(CCOCCC(=O)O)c1cc(-n2cncn2)c2cc(Br)c(Cl)c(Cl)c2n1` [I-938], the IC50 in experiment [1] and in experiment [2] was under 2000 nM throughout.
